From patent US4464388A, “Use of prostaglandin analogues to treat cytodamage” (priority 1982, dated 1984)
Like-named read-outs stand apart in the source and are kept apart here.

Tests used:
[1] = system: carbon tetrachloride (CCl4) induced liver damage; assay: Effect on carbon tetrachloride (CCl4) induced liver damage (liver cell necrosis type); format: in vivo, Male Wistar rats; settings: for inhibition in vivo at 0.02 mg/kg: Rattus norvegicus, sc, 24 h, s.c., 20 μg/kg
Protocol: Effect on carbon tetrachloride (CCl4) induced liver damage (liver cell necrosis type)
Male Wistar rats weighing 180-220 g were used. Rats were dosed intraperitoneally with CCl4 dissolved in olive oil (5%, w/v) at a volume of 500 μl/kg after 18 hr starvation. The compound under test was administered orally (p.o.) or subcutaneously (s.c.) 6 and 12 hr after CCl4 injection in rats and blood was collected after 24 hr. Plasma glutamic oxaloacetic transaminase (GOT) and glutamic pyruvic transaminase (GPT) activities were determined by ultraviolet absorbance methods (optimised method based on the recommendations of the Deutsche Gesellschaft fur Klinische Chemie). The effects of the compounds tested were assessed by the inhibition rate in comparison with controls. Inhibition rate was calculated by the following formula. [formula] The results obtained are shown in the following Tables 1A and 1B for compounds of the general formula: [drawing 10] wherein R, R^1 and --X--Y--Z-- have the meanings indicated.
In Tables 1A, 1B and 2 to 5 hereinafter the dose shown in the amount given at each administration of the compound under test.

[2] = Acute toxicity test; settings: mouse, in vivo; oral, mice observed for 14 days
Protocol: Male JCL-ICR mice (non SPF mice) from 7 weeks of age were used. The compound under test was dissolved in 5% v/v ethanol containing 0.4% w/v Tween 80 (Tween is a registered trademark) and administered orally to the mice. […] The deaths observed were all within 72 hrs after treatment.

[3] = system: D(+)-galactosamine hydrochloride-induced liver damage; assay: Effect on D(+)-galactosamine hydrochloride-induced liver damage (hepatitis type); format: in vivo, Male Wistar rats; settings: p.o., 100 μg/kg
Protocol: Effect on D(+)-galactosamine hydrochloride-induced liver damage (hepatitis type)
Male Wistar rats weighing 180-220 g were used. After the rats had fasted for 18 hr, 250 mg/kg galactosamine hydrochloride was administered to them intraperitoneally three times at 4 hr intervals. The compound under test was administered orally 6, 12, 18, 24, 30, 36, 42 and 48 hr after the dose of D(+)-galactosamine hydrochloride and blood was collected after 36, 48 and 54 hr. Plasma GOT and GPT activities were determined in the manner described in Experiment 1 and the effects were shown by the inhibition rate compared with controls (calculation by the formula shown in Experiment 1).

[4] = system: alcohol-induced acute liver damage; assay: Effect on alcohol-induced acute liver damage; format: in vivo, Male Wistar rats; settings: p.o., 50 μg/kg; blood after 24 hr
Protocol: Effect on alcohol-induced acute liver damage
Male Wistar rats weighing 180-220 g were used. After the rats had fasted for 18 hr, 50% v/v ethanol solution was given orally to them at a volume of 12 ml/kg. The compound under test was administered orally 30 min before and 2 and 8 hr after administration of ethanol and blood was collected after 24 hr. Plasma GOT and GPT activities were determined in the manner described in Experiment 1. Effects were shown by the inhibition rate compared with controls (calculation by the formula shown in Experiment 1).

[5] = system: α-naphthylisothiocyanate-induced liver damage; assay: Effect on α-naphthylisothiocyanate-induced liver damage (cholangioatresia type); format: in vivo, Male Wistar rats; settings: p.o., blood after 24 hr
Protocol: Effect on α-naphthylisothiocyanate-induced liver damage (cholangioatresia type)
Male Wistar rats weighing 190-220 g were used. After rats had fasted for 18 hr, α-naphthylisothiocyanate (ANIT) dissolved in olive oil (1.5% w/v) was given orally to them at 30 mg/kg body weight. The compound under test was administered orally 30 min before and 6 and 12 hr after administration of ANIT and blood was collected after 24 hr. Plasma GOT, GPT and bilirubin activities were determined and the results given in Table 5 show the inhibition rate compared with controls (calculation by the formula shown in Experiment 1).

[6] = system: p-acetoamidophenol-induced liver damage; assay: Effect on p-acetoamidophenol-induced liver damage (liver glutathione decrease type); format: in vivo, Male Wistar rats; settings: p.o., 50 μg/kg; blood after 24 hr
Protocol: Effect on p-acetoamidophenol-induced liver damage (liver glutathione decrease type)
Male Wistar rats weighing 180-220 g were used. After the rats had fasted for 18 hr, p-acetoamidophenol (2.5 g/kg) was given orally to them. The compound under test was administered orally 30 min before and 6 and 12 hr after administration of p-acetoamidophenol and blood was collected after 24 hr. Plasma GOT and GPT activities were determined in the manner described in experiment 1 and the results given in Table 4 show the inhibition rate compared with controls (calculation by the formula shown in Experiment 1)

[7] = system: ethionine-induced acute pancreatitis; assay: Effect on ethionine-induced acute pancreatitis; format: in vivo, Male TCL-ICR mice; settings: s.c., 5 μg/kg
Protocol: Effect on ethionine-induced acute pancreatitis
Male TCL-ICR mice from 4 weeks of age were used. After normal feeding the mice were given a choline-deficient diet (CD diet) for 2 days. Further after having fasted for 24 hr, they were given a choline-deficient diet containing 5% DL-ethionine (CDE diet) for 2 days, counted as days 1 and 2. The mice were then given the CD diet for 1 day and thereafter fed normally. Compound number 6 was administered subcutaneously to them at 5 μg/kg, twice daily, during the CDE diet on days 1 and 2, and then administered in the same manner once daily on days 3, 4 and 5. The effect of the compound under test on the survival rate at day 9 was determined. Further details of the test method appear in Gastroenterology, 78, 777 (1980).

[8] = system: carbon tetrachloride-induced liver cell necrosis; settings: Stachur et al; cited from earlier work
[9] = system: acute galactosamine-induced liver damage; settings: Stachur et al; cited from earlier work
[10] = system: blood platelet aggregation; settings: cited from earlier work
[11] = system: thrombus; settings: cited from earlier work
[12] = system: diet-induced acute pancreatitis; settings: mice; Manabe et al; cited from earlier work
[13] = system: isolate perfused cat liver; settings: Araki et al; cited from earlier work
[14] = system: endotoxin-induced lung injury; settings: sheep; Demling et al; cited from earlier work
[15] = system: artery; settings: cited from earlier work
[16] = system: endotoxin shock; settings: dog; Fletcher et al; cited from earlier work
[17] = system: arachidonic acid-induced blood platelet aggregation; settings: human; cited from earlier work

CCCC1CCC([C@H](O)/C=C/[C@H]2[C@H](O)CC(=O)[C@@H]2CC(=O)CCCCC(=O)OC)C1 (single isomer, unassigned) [Compound 6, 15-(3-Propylcyclopentyl)-16,17,18,19,20-pentanor-6-oxo-PGE1 methyl ester]
inhibition in vivo at 0.02 mg/kg ([1]; plasma GOT after 24 hr, read-out: inhibition rate GOT): 54.1%
inhibition in vivo at 0.02 mg/kg ([1]; plasma GPT after 24 hr, read-out: inhibition rate GPT): 43.2%
inhibition rate GOT ([1]; p.o., 100 μg/kg, plasma GOT after 24 hr): 71.3%
inhibition rate GPT ([1]; p.o., 100 μg/kg, plasma GPT after 24 hr): 67.5%
LD50 at 336 h [2]: 10 to 20 mg/kg
inhibition rates GOT 36 hr after ([3]; 36 hr): 37.2%
inhibition rates GPT 36 hr after ([3]; 36 hr): 29.4%
inhibition rates GOT 48 hr after ([3]; 48 hr): 46.3%
inhibition rates GPT 48 hr after ([3]; 48 hr): 38.2%
inhibition rates GOT 54 hr after ([3]; 54 hr): 39.1%
inhibition rates GPT 54 hr after ([3]; 54 hr): 39.1%
inhibition rate GOT [4]: 24.5%
inhibition rate GPT [4]: 35.8%
inhibition GOT ([5]; 20 μg/kg): 14.6%
inhibition GPT ([5]; 20 μg/kg): 5.4%
inhibition bilirubin ([5]; 20 μg/kg): 18.2%
inhibition GOT ([5]; 50 μg/kg): 44.6%
inhibition GPT ([5]; 50 μg/kg): 49.8%
inhibition bilirubin ([5]; 50 μg/kg): 24.9%
inhibition GOT ([5]; 100 μg/kg): 67.8%
inhibition GPT ([5]; 100 μg/kg): 63.6%
inhibition bilirubin ([5]; 100 μg/kg): 50.5%
inhibition GOT [6]: 33.2%
inhibition GPT [6]: 60.4%
protection against death at day 9 from CDE diet [7]: significant protection against death
treated mice dead at day 9 ([7]; twice daily days 1-2, once daily days 3-5, untreated control 12 of 16 dead): 3 of 16

CCCCC(C)(C)[C@H](O)/C=C/[C@H]1[C@H](O)CC(=O)[C@@H]1C/C=C\CCCC(=O)O [16,16-dimethyl-PGE2]
effect on carbon tetrachloride-induced liver cell necrosis [8]: prevents
effect on acute galactosamine-induced liver damage [9]: prevents

CCCCC[C@H](O)/C=C/[C@H]1[C@H](O)CC(=O)[C@@H]1CCCCCCC(=O)O [PGE1, Prostaglandin E1]
effect on blood platelet aggregation [10]: inhibits
effect on thrombus [11]: removes the thrombus and prevents thrombosis

CCCCC[C@H](O)/C=C/[C@H]1[C@H](O)CC(=O)[C@@H]1C/C=C\CCCC(=O)O [PGE2]
effect against diet-induced acute pancreatitis [12]: effective

CCCCC[C@H](O)/C=C/[C@@H]1[C@H]2C/C(=C/CCCC(=O)O)O[C@H]2C[C@H]1O [PGI2, (5Z,13E)-(9α,11α,15S)-6,9-epoxy-11, 15-dihydroxyprosta-5,13-dienoic acid]
effect on hypoxia in the isolate perfused liver [13]: prevents and is useful in treating
effect on endotoxin-induced lung injury [14]: prevents and is useful in treating
activity on the artery [15]: relaxing activity
effect on endotoxin shock [16]: prevents and is useful in treating
effect on arachidonic acid-induced blood platelet aggregation [17]: strongly inhibits
